Among the data in PMC7767381, “Exploring the Anti-Cancer Mechanism of Novel 3,4′-Substituted Diaryl Guanidinium Derivatives” (Pharmaceuticals, 2020) are induction of apoptosis and viability values, retold here.

Several values for one entry are separate records, joined by “and”; a condition that tells them apart may be missing. Equal values may be shown once.

For this assay, the system named is HL-60 cells. The assay is described as follows: Annexin V-FITC/PI flow cytometry apoptosis assay in HL-60. As to conditions: 48 h; for induction of apoptosis: annexin V-FITC/PI; for viability at 5 µM: HL-60, 5 μM. In kind it is cell-based, human. As for the experimental part:
We have previously reported that compound 1 induces 68.9 ± 0.1% apoptosis in HL-60 cells at a 10 μM concentration after 48 h. Accordingly, in order to evaluate the apoptotic effect of the most relevant derivatives (2, 3, and 4), HL-60 cells were treated with these compounds (at 5 µM, 5 µM, and 4 µM concentration, respectively) for 48 h, stained with annexin V-FITC/PI and analysed using flow cytometry (Figure 5).
Apoptosis was analysed using annexin V fluorescein isothiocyanate (FITC) and propidium iodide (PI). HL-60 cells were seeded at a density of 2 × 10^5 cells/mL in 12 well plates. Cells were then treated with either vehicle (0.5% ethanol), 2 (5 µM), 3 (5 µM), or 4 (4 µM) for 48 h. Following treatment, HL60 cells were collected and washed with annexin V binding buffer (5 mM HEPES, 70 mM NaCl, 1.25 mM CaCl2 pH 7.4) and stained with annexin V-FITC (iQ Corporation, Groningen, The Netherlands) for 20 min. Following washing with annexin V binding buffer, cells were resuspended in PI (0.5 µg/mL) in binding buffer and analysed on BD FACS Canto II flow cytometer (BD Sciences) using FloJo software (Ashland, OR, USA).
Figure 5 Annexin V-FITC vs. PI flow cytometry analysis of HL-60 cancer cells treated with compounds 3 (5 μM), 2 (5 μM) and 4 (4 μM) for 48 h. These figures are representative of three independent experiments. The viable cells, early apoptotic, necrotic and late apoptotic cells are represented by the lower left, lower right, upper left and upper right quadrants, respectively. TEXT PRINTED IN THE PICTURE: 3: 2.45; 32.6; 27.1; 37.8 | 2: 0.56; 11.3; 78.1; 9.96 | 4: 1.09; 40.2; 12.4; 46.2 DOUBTS OF THE COPYIST ABOUT THIS PICTURE: All quadrant numbers are in very small print with no measure or unit; they are listed in the order upper left, upper right, lower left, lower right / 3, upper right quadrant: 32.6, partly covered by data points, 3/8 and 6/8 uncertain / 3, lower right quadrant: 37.8, partly covered by data points, 37.8 or 37.6 / 3, lower left quadrant: 27.1, small print / 2, lower left quadrant: 78.1 or 76.1 / 2, lower right quadrant: 9.96 or 9.95 or 9.98 / 4, upper right quadrant: 40.2, partly covered by data points / 4, lower right quadrant: 46.2 or 48.2, partly covered by data points / The Control and Vehicle plots also print quadrant numbers (Control: 0.16, 1.41, 97.7, 0.77; Vehicle: 0.088, 1.65, 97.3, 0.94); they are not listed because they are not test substances […]
Apoptosis was analysed using annexin V fluorescein isothiocyanate (FITC) and propidium iodide (PI). HL-60 cells were seeded at a density of 2x10^5 cells/mL in 12 well plates. Cells were then treated with either vehicle (0.5% ethanol), 2 (5 µM), 3 (5 µM) or 4 (4 µM) for 48 hours.
Following treatment, HL60 cells were collected and washed with annexin V binding buffer (5 mM HEPES, 70 mM NaCl, 1.25 mM CaCl2 pH 7.4) and stained with annexin V -FITC (iQ Corporation, Groningen, The Netherlands) for 20 minutes. Following washing with annexin V binding buffer, cells were resuspended in PI (0.5 µg/mL) in binding buffer and analysed on BD FACS Canto II flow cytometer (BD Sciences) using FloJo software (Ashlan d, Oregon, United […]
Figure S13. Compounds 3 and 4 promote strong apoptosis when inhibiting HL-60 cell viability.
For flow cytometry, HL60 cells were seeded at a density of 2x10^5 cells/mL in 12 well plates.
Cells were then treated with either vehicle (0.5% ethanol), 2 (5 µM), 3 (5 µM) or 4 (4 µM) for 48 hours. After 48 hours, cells were collected and stained with annexin V – FITC and propidium iodide. Samples were analysed by flow cytometry using the BD FACs Canto II cytometer.
Columns and bars represent the mean ± S.D. of 3 independent experiments. Statistical analysis was performed using one-way ANOVA with Dunnett’s multiple comparisons test comparing vehicle to drug treated samples. *p<0.05 and ***p<0.001.
(1 picture or pasted object on this page, not shown here)
(In flow cytometry, cells or beads pass a laser one at a time.)

Setting [1] is: Homo sapiens, representative plot, read-out: viable cells (lower left quadrant).

Turning to `Cl.Cl.N=C(N)Nc1ccc(Oc2cccc(NC(=N)Nc3ccc(Cl)c(C(F)(F)F)c3)c2)cn1` [Compound 2, 1-(4-Chloro-3-(trifluoromethyl)phenyl)-3-(3-((6-guanidinopyridin-3-yl)oxy)phenyl) guanidine dihydrochloride], the induction of apoptosis (HL-60, 5 µM) was 30.7 ± 11.6% and ~30%. For the same compound, the viability at 5 µM under setting [1] was 78.1%.
Turning to `Cl.N=C(N)Nc1ccc(Oc2cccc(Nc3ccc(Cl)c(C(F)(F)F)c3)c2)cc1` [Compound 3, 1-(4-(3-((4-Chloro-3-(trifluoromethyl)phenyl)amino)phenoxy)phenyl)guanidine hydrochloride], the induction of apoptosis (HL-60, 5 µM) is 82.5 ± 11.3% and 82%. The viability at 5 µM under setting [1] was 27.1%.
In the case of `Cl.N=C(N)Nc1ccc(Oc2cccc(Nc3ccc(Cl)c(C(F)(F)F)c3)c2)cn1` [Compound 4, 1-(5-(3-((4-Chloro-3-(trifluoromethyl)phenyl)amino)phenoxy)pyridin-2-yl)guanidine hydrochloride], the induction of apoptosis (HL-60, 4 µM) is 92.7 ± 5.5% and 92%. For the same compound, for the setting “Homo sapiens, HL-60, 4 μM, representative plot, read-out: viable cells (lower left quadrant)”, the viability at 4 µM turned out to be 12.4%.
